Source: US20040248937A1, “Substituted phenylalkanoic acids for the treatment of diabetes” (The Institute for Pharmaceutical Discovery LLC, priority 2003, published 2004)

Test system: insulin resistant rats
Test: Euglycemic insulin clamp in High Fat Diet fed insulin resistant rats after a single oral dose
Assay type: in vivo, Male Wistar rats
Conditions: for EGP (endogenous glucose production) / GIR (glucose infusion rate) / GU (glucose utilization): 4 hrs before clamp, mean ± sem
Protocol: Male Wistar rats were fed a High Fat Diet for at least 4 weeks. Jugular vein and carotid artery cannulations were performed one week prior to the clamp experiment. Test compound (Compound 15) is administered p.o. 4 hrs before the clamp and labeled 3-3H-glucose is infused 1 hr prior to calculated endogenous glucose production (EGP). Insulin is infused at a rate of 0.75 U/kg/hr raising plasma insulin levels to […]. To maintain euglycemia (80 mg/dl), unlabeled glucose is infused at a variable rate and adjusted every 10 minutes.

Structure (SMILES): CCc1ccc(-c2sc(NC(=O)c3ccc(S(=O)(=O)N[C@@H](Cc4ccccc4)C(=O)O)cc3)nc2-c2ccc(Cl)cc2)cc1 [Compound 15, N-{[4-({[4-(4-chlorophenyl)-5-(4-ethylphenyl)-1,3-thiazol-2-yl]amino}carbonyl)phenyl]sulfonyl}phenylalanine]
- EGP (endogenous glucose production) (10 mg/kg single oral dose): 1.4 ± 1.8 mg/kg/min
- GIR (glucose infusion rate) (10 mg/kg single oral dose): 29.6 ± 5.0 mg/kg/min
- GU (glucose utilization) (10 mg/kg single oral dose): 28.3 ± 6.6 mg/kg/min
- effect on endogenous glucose production (EGP) (30 mg/kg p.o., result in words): enhanced suppression
- effect on glucose infusion rate (GIR) (30 mg/kg p.o., result in words): significantly increased
- effect on glucose utilization (GU) (30 mg/kg p.o., result in words): augmented stimulation
- EGP (endogenous glucose production) (30 mg/kg single oral dose): 0.16 ± 0.5 mg/kg/min
- GIR (glucose infusion rate) (30 mg/kg single oral dose): 30.8 ± 2.2 mg/kg/min
- GU (glucose utilization) (30 mg/kg single oral dose): 30.7 ± 2.00 mg/kg/min
- EGP (endogenous glucose production) (60 mg/kg single oral dose): 0.77 ± 0.4 mg/kg/min
- GIR (glucose infusion rate) (60 mg/kg single oral dose): 38.0 ± 2.2 mg/kg/min
- GU (glucose utilization) (60 mg/kg single oral dose): 37.3 ± 2.3 mg/kg/min
